{
  "source": "patent US5739162A",
  "about": "“Carbamoylmethylurea derivatives” (Shionogi & Co., Ltd., priority 1994, dated 1998)",
  "key": {"gastrin receptor": {"target": "T1, gastrin receptor (Cavia porcellus, UniProt H0VZC5)", "T1 construct": "stomach was extracted from each animal immediately, from which gastric glands were prepared; from tissue; host or cells: gastric (fundic) glands of male Hartley guinea pigs", "T1 sequence (H0VZC5 1-426)": "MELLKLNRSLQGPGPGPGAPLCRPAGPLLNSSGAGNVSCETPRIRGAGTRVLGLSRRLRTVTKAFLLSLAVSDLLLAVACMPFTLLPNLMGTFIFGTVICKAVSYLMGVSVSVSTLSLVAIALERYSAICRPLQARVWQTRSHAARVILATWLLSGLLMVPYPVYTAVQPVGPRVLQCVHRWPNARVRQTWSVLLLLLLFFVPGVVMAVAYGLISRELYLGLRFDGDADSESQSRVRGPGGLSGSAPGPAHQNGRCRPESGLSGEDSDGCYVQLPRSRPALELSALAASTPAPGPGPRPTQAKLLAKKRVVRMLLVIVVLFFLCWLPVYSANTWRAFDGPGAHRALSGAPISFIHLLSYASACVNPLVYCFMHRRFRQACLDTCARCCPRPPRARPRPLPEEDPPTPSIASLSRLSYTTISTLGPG", "test": "Gastrin receptor antagonism: displacement of 125I-labeled gastrin from gastric glands", "format": "binding, guinea pig (male Hartley)", "settings": "guinea pig fundic gastric glands; 125I-gastrin 0.2 nM; 30 min, 25° C.", "experimental": "(§1) The pharmacological effect of compounds (I) prepared in Examples above were evaluated in vitro with respect to antagonistic activity against gastrin receptor, CCK-B receptor or CCK-A receptor, using fundic gland cells of guinea pig, crude membrane specimen from mouse cerebral cortex, or crude membrane specimen from mouse pancreas, respectively.\n(§2) Male Hartley guinea pig (450-600 g) or male ddY mouse (24-30 g) were used.\n(1) Gastrin Receptor Antagonism\nPreparation of gastric glands\nMale Hadley guinea pigs (450-600 g) were killed by bleeding and stomach was extracted from each animal immediately, from which gastric glands were prepared.\nPreparation of test compounds and procedures of displacing assay A 1M solution of a compound to be tested in DMSO is prepared and diluted with 50% DMSO to obtain a ten-fold dilution series.\nThe reaction is initiated by the addition of gastric glands to solutions of different concentration each containing ^125 I-labeled gastrin (final concentration, 0.2 nM). The mixture is incubated for 30 min at 25° C., centrifuged at 2000 rpm for 5 min and the supernatant is removed by aspiration. To the pellet is added ice-cooled incubation buffer and mixed gently, followed by an immediate centrifugation and removal of the supernatant by aspiration. The radioactivity is counted on gamma counter. The same procedure was repeated using 50% DMSO solution or human gastrin I (final concentration, 2 μM) instead of a solution of test compound so as to obtain the control value regarding total binding or the value regarding non-specific binding, respectively.\n(§3) The IC50 was determined by plotting the ratio (%) of specific binding of a test compound to that of control on semilogarithmic graph and obtaining the concentration corresponding to 50%, wherein: specific binding of control=total binding (cpm)--non-specific binding (cpm); and specific binding of test compound=total binding (cpm)--non-specific binding (cpm)."}, "gastric acid secretion": {"tested_on": "gastric acid secretion", "test": "Inhibitory effect on pentagastrin-stimulated gastric acid secretion in anesthetized rat (perfused stomach, Schild method)", "format": "in vivo, rat (Sprague Dawley)", "settings": "intraduodenal (i.d.), 0.5% M.C. suspension", "text": "Anti-acid secreting function of carbamoylmethylurea derivative (I) of the present invention has been confirmed by the in vivo experiment (cf. Schild Method; Experiment 1 below). […] From the results of these experiments, it is apparent that the carbamoylmethylurea derivative (I) has an anti-acid secreting function, and is an excellent gastrin receptor antagonist and/or CCK-B receptor antagonist which has enough functional separativeness from CCK-A receptor.\nExperiment 1 In Vivo Test\nEvaluation of Inhibitory Effect on Gastric Acid Secretion by Child Method\nTwenty four hour starved (ad libitum for water) male Sprague Daily rats (8-week-old) were anesthetized with urethane (1.5 g/kg S.C.) and kept breathing with esophagus cannulas. After laparotomy, esophagus cannulas were inserted orally up to proventriculus and ligated around gastric cardiac. Perfusion cannulas were inserted from duodenum into stomach and ligated around pylorus. Another cannulas were placed into duodenum and ligated for administration of drug. After sutra of abdomen, stomach was perfused via the esophagus cannulas with physiological saline (37° C.) while collecting perfusate for a 15 min interval. The perfusate was subjected to titration with 0.001N NaOH solution to determine the acidity. When the basal acid secretion became stable, pentagastrin ([…])was administered in a sustained manner via common carotid vein for about 90 min until the acid secretion reached approximately the highest level, when a test compound (0.5% M.C. suspension) was administered into duodenum through cannulas. The perfusate was collected for a 15 min interval to monitor the acid secretion for 90 min. The percent inhibition was calculated as follows:\nPercent inhibition (%)=100×(A-B)/(C-B)\nA: the minimum value of total acidity observed after the administration of a test compound;\nB: the total acidity obtained immediately before the administration of pentagastrin; and\nC: the total acidity obtained immediately before the administration of a test compound."}, "CCK-B receptor": {"target": "T2, CCK-B receptor (Mus musculus, UniProt P56481)", "T2 construct": "crude membrane specimen from mouse cerebral cortex; from tissue; host or cells: cerebral cortex of male ddY mice, crude membranes", "T2 sequence (P56481 1-453)": "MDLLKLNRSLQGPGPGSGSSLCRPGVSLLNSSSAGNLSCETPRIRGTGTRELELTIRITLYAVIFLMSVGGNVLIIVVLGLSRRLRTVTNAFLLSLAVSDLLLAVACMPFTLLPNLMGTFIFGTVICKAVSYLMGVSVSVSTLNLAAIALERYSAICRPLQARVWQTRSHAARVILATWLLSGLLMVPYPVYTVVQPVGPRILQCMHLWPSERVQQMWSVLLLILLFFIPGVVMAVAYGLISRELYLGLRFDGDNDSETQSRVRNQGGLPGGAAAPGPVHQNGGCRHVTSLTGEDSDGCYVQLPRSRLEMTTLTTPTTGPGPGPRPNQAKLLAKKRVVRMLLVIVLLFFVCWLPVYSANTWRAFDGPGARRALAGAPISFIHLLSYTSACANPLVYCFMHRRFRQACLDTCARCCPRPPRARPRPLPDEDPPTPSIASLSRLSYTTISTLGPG", "test": "CCK-B receptor antagonism: displacement of [3H]CCK-8 from crude membrane of cerebral cortex", "format": "binding, mouse (male ddY)", "settings": "[3H]CCK-8 1 nM, 90 min, 25° C.", "experimental": "as §1, §2\n(§4) (2) CCK-A Receptor Antagonism and CCK-B Receptor Antagonism Preparation of CCK receptor preparations Male ddY mice (24 to 30 g) were killed by decapitation and cerebral cortex (CCK-B) and pancreas (CCK-A) were extracted immediately. Each of cerebral cortex and pancreas was mixed with 50 mM Tris-HCl buffer (pH 7.4) and homogenized with a teflon-glass homogenizer and polytron homogenizer to obtain crude membrane specimens.\n(§5) Preparation of test compounds and procedures of displacing assay\n(§6) A 1M solution of a compound to be tested in DMSO is prepared and diluted with 50% DMSO to obtain a ten-fold dilution series.\n(§7) The reaction is initiated by the addition of crude membrane specimen to solutions of different concentration each containing [^3 H]CCk-8 (final concentration, 1 nM). The mixture is incubated for 90 min at 25° C., filtered through glass filter with aspiration and washed with a cooled 50 mM Tris buffer. After the addition of Aquazol-2 cocktail the radioactivity is counted. The same procedure was repeated using 50% DMSO solution or Ceruletide (final concentration, 1 μM) instead of a solution of test compound so as to obtain the control value regarding total binding or the value regarding non-specific binding, respectively.\nas §3"}, "CCK-A receptor": {"target": "T3, CCK-A receptor (Mus musculus, UniProt O08786)", "T3 construct": "crude membrane specimen from mouse pancreas; from tissue; host or cells: pancreas of male ddY mice, crude membranes", "T3 sequence (O08786 1-436)": "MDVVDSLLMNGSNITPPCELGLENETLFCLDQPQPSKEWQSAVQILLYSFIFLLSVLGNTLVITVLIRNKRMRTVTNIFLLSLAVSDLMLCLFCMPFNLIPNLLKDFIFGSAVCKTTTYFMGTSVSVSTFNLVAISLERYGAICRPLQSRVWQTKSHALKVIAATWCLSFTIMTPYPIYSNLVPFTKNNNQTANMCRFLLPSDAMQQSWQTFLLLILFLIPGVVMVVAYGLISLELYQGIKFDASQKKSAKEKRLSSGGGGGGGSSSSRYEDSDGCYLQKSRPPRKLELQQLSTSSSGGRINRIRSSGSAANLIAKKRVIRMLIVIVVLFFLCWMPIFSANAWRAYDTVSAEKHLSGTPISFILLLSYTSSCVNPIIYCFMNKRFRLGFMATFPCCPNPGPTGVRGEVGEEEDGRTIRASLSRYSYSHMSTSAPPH", "test": "CCK-A receptor antagonism: displacement of [3H]CCK-8 from crude membrane of pancreas", "format": "binding, mouse (male ddY)", "settings": "[3H]CCK-8 1 nM, 90 min, 25° C.", "experimental": "as §1, §2, §4, §5, §6, §7, §3"}},
  "data": [
    {"smiles": "CC(C)(C)OC(=O)CN(C(=O)CNC(=O)Nc1cccc(C(F)(F)F)c1)c1ccccc1C(=O)C1CCCCC1", "note": "[Compound 15b, Cyclohexyl-(2-(N-(t-butoxycarbonylmethyl)-N-(N'-(m-trifluoromethylphenyl)ureidomethylcarbonyl)amino)phenyl)ketone]", "values": [
      {"measurement": "IC50", "setting": "gastrin receptor", "value": 5, "unit": "nM"},
      {"measurement": "ED50", "setting": "gastric acid secretion; Rattus norvegicus", "value": 0.026, "unit": "mg/kg"},
      {"measurement": "IC50", "setting": "CCK-B receptor", "value": 6, "unit": "nM"},
      {"measurement": "IC50", "setting": "CCK-A receptor", "value": 1150, "unit": "nM"}
    ]},
    {"smiles": "Cc1cccc(NC(=O)N[C@@H]2N=C(c3ccccc3)c3ccccc3N(CC(=O)c3ccccc3C)C2=O)c1", "note": "[YM-022, reference compound]", "values": [
      {"measurement": "IC50", "setting": "gastrin receptor", "value": 2, "unit": "nM"},
      {"measurement": "ED50", "setting": "gastric acid secretion", "value": 0.107, "unit": "mg/kg"},
      {"measurement": "IC50", "setting": "CCK-B receptor", "value": 2, "unit": "nM"},
      {"measurement": "IC50", "setting": "CCK-A receptor", "value": 100, "unit": "nM"}
    ]}
  ]
}
